PubChem BioAssay (NCI)
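Interpolation was linear, between the two tested concentrations surrounding the appropriate level; five concentrations were tested over 48 hours in 96-well plates. Definition used: TGI = concentration required for complete inhibition of growth.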

Assays:
Experiment in all cases: inhibition of tumour cell growth, NCI panel, 48 h
TK-10 renal = system: TK-10 renal
UACC-62 melanoma = system: UACC-62 melanoma
786-0 renal = system: 786-0 renal
UACC-257 melanoma = system: UACC-257 melanoma
HOP-92 NSCLC = system: HOP-92 NSCLC
SK-MEL-2 melanoma = system: SK-MEL-2 melanoma
SK-OV-3 ovarian = system: SK-OV-3 ovarian
MDA-N = system: MDA-N
K-562 leukemia = system: K-562 leukemia
A498 renal = system: A498 renal
ACHN renal = system: ACHN renal

Row | Compound | TGI (TK-10 renal) [µM] | TGI (UACC-62 melanoma) [µM] | TGI (786-0 renal) [µM] | TGI (UACC-257 melanoma) [µM] | TGI (HOP-92 NSCLC) [µM] | TGI (SK-MEL-2 melanoma) [µM] | TGI (SK-OV-3 ovarian) [µM] | TGI (MDA-N) [µM] | TGI (K-562 leukemia) [µM] | TGI (A498 renal) [µM] | TGI (ACHN renal) [µM]
1 | COC(=O)C1=NN2c3ccccc3CN([C@@H](C)c3ccccc3)C(=O)[C@@H]2C1 | > 100 | 66.8 | > 100 | > 100 | > 100 | 74.1 | > 100 | > 100 | 76.6 | > 100 | > 100
2 | Cc1cc2c3c(ccc4ncc(c43)CN2c2ccc(NS(C)(=O)=O)cc2)[nH]1 | 73.1 | > 100 | 23.5 | > 100 | 92.2 | > 100 | 97.5 | > 100 | > 100 | > 100 | > 100
3 | CC(=O)OCCn1c(Cc2ccc([N+](=O)[O-])cc2)nn(C(C)=O)c1=O | > 100 | > 100 | > 100 | > 100 | > 100 | > 100 | > 100 | > 100 | > 100 | > 100 | > 100
4 | COc1ccc(-c2nc3ccc(C)cc3o2)c(OC)c1 | 76.5 | 70.2 | 41.7 | 46.5 | > 66.8 | 71.7 | > 100 | 64.4 | > 64.5 | 46.5 | > 100
5 | C[C@H](CCc1nc(C#N)c(N)o1)[C@H]1CC[C@H]2[C@@H]3[C@@H](O)CC4C[C@@H](O)CC[C@]4(C)[C@H]3C[C@@H](O)[C@]12C (some centres undefined) | > 68.1 | 30.5 | > 86.7 | 50.6 | 67 | 45.1 | 73.8 | 77.8 | 86.4 | > 100 | > 90
6 | CC(=O)OC1CC(OC2C(O)CC(OC3C(O)CC(OC4CCC5(C)C(CCC6C5CC(O)C5(C)C(C7=CC(=O)OC7)CCC65O)C4)OC3C)OC2C)OC(C)C1O (centres undefined) (tested in a mixture with another compound) | 0.114 | 0.128 | 0.13 | 0.305 | 0.182 | 0.207 | 0.162 | 0.147 | 0.0685 | 0.307 | 0.0818
7 | Nc1nc(Nc2ccc(Cl)cc2)sc1C(=O)c1cc2ccccc2oc1=O | > 100 | > 100 | > 100 | > 100 | > 100 | 75.8 | > 100 | > 100 | > 100 | 93.7 | > 100
8 | CCCNc1[nH]c(C(C)=O)c(N)c1C(=S)Nc1ccccc1 | > 100 | 41.6 | 75.6 | > 100 | > 100 | > 100 | > 100 | > 100 | > 100 | > 100 | > 100
9 | CC(C)(C)OC(=O)C1/C(=C/CO)CN1C(=O)OC(C)(C)C (centres undefined) | > 100 | > 100 | > 100 | > 100 | > 100 | > 100 | > 100 | > 100 | > 100 | > 100 | > 100
10 | CS(=O)(=O)C(=Cc1ccccc1Cl)S(C)(=O)=O | > 100 | > 100 | > 100 | > 100 | > 100 | > 100 | > 100 | > 46.4 | > 100 | > 100 | > 100
11 | CN1c2ccccc2C2c3c(O)ccc(O)c3C=C([N+](=O)[O-])C21 (centres undefined) | 23.3 | 2.66 | 2.13 | 0.516 | 5.84 | 7.08 | 13.5 | 1.5 | > 100 | 5.47 | 1.97
12 | Nc1nc(Cl)cc(Nc2ccc3c(c2)CCC3)n1 | > 100 | > 100 | > 100 | > 100 | > 100 | > 100 | > 100 | > 100 | > 100 | > 100 | > 100
13 | CCOC(=O)c1sc2nc(SC)nc(Nc3ccc(OC)c(OC)c3)c2c1N | 76.4 | > 100 | > 100 | > 100 | 25.4 | > 100 | 52.9 | > 100 | > 100 | 37.3 | > 100
14 | Cc1c(-c2ccccc2)n(C)c2cn[nH]c(=O)c12 | > 100 | > 100 | 62.5 | > 100 | > 100 | 48 | 61.2 | > 100 | > 100 | > 100 | > 100
15 | CC(C)(C)SC1=CCC[C@@H](P(=O)(c2ccccc2)c2ccccc2)[C@@H]2CCC[C@@H]12 | 32.3 | 24.9 | 30.4 | 31.8 | 28.9 | 31.8 | 33.8 | 30.3 | 51.6 | 29.4 | 30.6
16 | COc1cc(OC)c(/C=N/N=C(\N)NO)c(OC)c1 | > 100 | > 100 | > 100 | > 100 | > 100 | > 100 | > 100 | > 100 | > 100 | > 100 | > 100
17 | CCOC(=O)Cn1nc2ccc(Nc3nc4ccccc4nc3C(=O)OCC)cc2n1 | > 100 | > 100 | > 100 | > 100 | > 100 | > 100 | > 100 | > 100 | > 100 | > 100 | > 100
18 | CC1C(c2ccccc2O)c2cc3c(cc2OC1N1CCCC1)OCO3 (centres undefined) | > 100 | > 100 | 91 | 92.5 | 69.3 | 80 | > 100 | 46.8 | 41.8 | 60.7 | > 100
19 | O=S(=O)(Nc1ccccc1S(=O)(=O)c1ccccc1)c1ccccc1 | > 100 | > 100 | > 100 | > 100 | > 100 | > 100 | > 100 | > 100 | > 100 | > 100 | > 100
20 | O=C(O)/C(=C\c1ccccc1)Cc1ccccc1 | > 100 | > 100 | > 100 | > 100 | > 100 | > 100 | > 100 | > 100 | > 100 | > 100 | > 100
21 | COc1cc(/C=C2\NC(=O)N(/C=C3\C(=O)Oc4ccccc4C3=O)C2=O)ccc1O | > 100 | > 100 | > 100 | > 100 | > 100 | > 100 | > 100 | > 100 | > 100 | > 100 | > 100
22 | COc1cc2c(cc1OC)-c1cc3ccccc3c(=O)n1CCC2 | > 100 | 36.5 | > 51.3 | > 86.1 | 68.3 | 86.6 | > 100 | 33.6 | > 81.9 | 31.5 | > 100
23 | O=C1c2c(Br)sc(Br)c2[C@H]2NC(=S)O[C@@H]12 | 57.9 | 29.2 | 28.5 | 31.3 | 33.8 | 33.4 | 33.3 | 30.6 | 20.7 | 47.2 | 31.6
24 | COc1cc(CNC(=O)CCCCCCCC/C=C/Br)ccc1O | > 10 | > 10 | > 10 | > 10 | > 10 | > 10 | > 10 | > 10 | > 10 | > 10 | > 10
25 | CCCCc1ccc(Nc2nc(Cl)c3[nH]cnc3n2)cc1 | 50.6 | 31.9 | 29.1 | 30.8 | 26.3 | 31 | 99.8 | 43.1 | > 100 | 55.4 | > 100
26 | COC(=O)[C@]1(c2cc3ccccc3[nH]2)CC2CN(CC(=O)N(C)OC)C1C1OC(C)(C)OC21 (some centres undefined) | > 100 | > 100 | > 100 | > 100 | > 100 | > 100 | > 100 | > 100 | > 100 | 91.7 | > 100
27 | O=[N+]([O-])C(=C1Nc2ccccc2N1)C(Cl)=C(Cl)Cl | > 100 | > 100 | > 100 | > 100 | > 100 | > 100 | > 100 | > 100 | > 100 | > 100 | > 100
28 | CC[C@H](CCCCC1CC[C@@H]2CC(=O)C[C@H]12)OC (some centres undefined) | > 100 | > 100 | > 100 | > 100 | > 100 | > 100 | > 100 | > 100 | > 100 | > 100 | > 100
29 | Cc1ccc(S(=O)(=O)n2ccn3c(=O)cc(C)nc23)cc1 | > 10 | > 10 | > 10 | > 10 | > 10 | > 10 | > 10 | > 10 | > 10 | > 10 | > 10
